Data as given in patent US20230414571A1, “APPLICATION OF SMALL-MOLECULE COMPOUND IN PREPARATION OF ANTITUMOR DRUG” (SOOCHOW UNIVERSITY, priority 2021, published 2023).

Assays:
U87 glioma cells = assay: Targeted metabonomics analysis of U87 cells; format: cell-based
Procedure: 1×10^7 cells (a sample cell number) were collected, and the cell supernatant was removed by means of centrifugation (1000×g, 1 minute) after quenching with a newly prepared quencher. The cells were resuspended with 100 μL of ultrapure water and mixed well. After 800 μL of cold methanol:acetonitrile (1:1, v/v) was added, the uniformly mixed cell samples were subjected to ultrasonic treatment in an ice bath for 30 minutes. The mixture was stored at −20° C. for 1 h to precipitate the protein. After centrifugation at 4° C. (14000×g, 20 minutes), the supernatant was collected, lyophilized, stored at −80° C., and then analyzed by means of […].
The lyophilized samples were resuspended in a solution (acetonitrile:water, 1:1, v/v, 100 μL) and then centrifuged at 4° C. (14000×g, 10 minutes). The supernatant (100 μL) was collected and diluted with an acetonitrile solution (100 μL), and a […] sample was loaded at 4° C. by using an Agilent 1290 Infinity liquid chromatography (LC) system (Agilent Technologies, Beijing, China) and a 5500 QTRAP mass spectrometer (Toronto of Canada, AB Sciex). At ACQUITY-UPLC-BEH column (1.7 μm, 2.1 mm×150 mm, Waters Technology (Shanghai) Co., Ltd.), chromatographic separation was performed at a flow rate of 300 μL/min, where solvent A (mobile phase) was a 15 mM ammonium acetate aqueous solution, and solvent B was acetonitrile. Chromatographic conditions of gradient elution were reduced from 90% B to 40% B, and were increased sharply from 40% B to 90% B after 18 minutes, a volume ratio of 90% B was kept for 4.9 minutes after 0.1 minute, and the duration of the whole process was 23 minutes. An equal volume of compounds was extracted from 32 actual samples so as to monitor the stability of the system, thereby being used for processing a quality control (QC) sample and put into a real sample. Mass spectrum experiments were performed in a negative ion and multi-reaction monitoring mode, and specific parameters were as follows: a source temperature of 450° C., an atomizer gas (GS1): 45, an auxiliary gas (GS2): 45, a curtain gas (CUR): 30, and an ion space voltage floating (ISVF): −4500 V.
Standard GC-MS data was processed by using analysis software (AB Sciex, Toronto, Canada), which included converting the original mass spectrum data to data containing m/z, measuring the corresponding ion intensity and retention time, and subsequent statistical analysis. Peak testing and calibration of all the samples were compared to their chemical standards (Sigma-Aldrich). […]
Statistical significance was tested by using t. *: P<0.05, **: P<0.01, and ***: P<0.005. […] The hexokinase (HK2 in cancer cells), which is the first one and serves as a rate-limiting enzyme in a glycolysis pathway was evaluated. […]

[1] = Plasma pharmacokinetics in mice determined by GLMSD; format: in vivo, mouse; conditions: mouse, in vivo, 40 mg/kg
Procedure: It can be seen from FIG. 8-1 that the GLMSD platform can specifically acquire the pharmacokinetic data of small-molecule compound 27. Competitive advantages of GLMSD in pharmacokinetic research: (1) a complete drug blood concentration curve of each individual may be tracked; and (2) the total number of mice used in the test is reduced. Since the blood sample consumption of the GLMSD method is low (10 μL of blood per time point), one mouse can be used for completing the entire pharmacokinetic curve (blood sampling at 11 time points within 24 hours, and the minimum interval being 0.25 hour) of a drug.
Based on the advantage that the complete PK curve can be tested by means of the GLMSD, we observe that 3 (#2, #3 and #4) in 8 mice have the characteristic re-absorption peak of this small-molecule inhibitor at the time point of 8 h, and such a characteristic re-absorption peak hardly exists in other 5 mice. This significant phenomenon is related to drug uptake differences between individuals, prompting that compound 27 may re-enter blood circulation by means of a secondary absorption pathway. In the mode of continuous multiple administration (c in FIG. 8-2), pharmacokinetic data of compound 27 (40 mg/kg) was collected from each mouse every day (1, 3, 6, and 8 hours after last administration) for 5 days. For a single dose (a in FIG. 8-2) or a continuous multi-dose (d in FIG. 8-2) administration manner, a limitation of a conventional LC-MS technology lies in obtaining a single data point of pharmacokinetics of a drug by sacrificing one mouse, whereas GLMSD can break through this limitation by providing a complete pharmacokinetic curve based on a single mouse.

[2] = tested on: U87 cell transplantation tumor (brain glioma); assay: MSI imaging of drug in brain tissue section (blood-brain barrier penetration); format: in vivo; conditions: MSI of brain tissue section with U87 glioma implant
Description: FIG. 9 is an MSI image of a drug and a metabolite (compound 27: m/z 499, lactic acid: m/z 113) in a brain tissue section, where an optical micrograph of a serial section of H&E staining is used as a reference. The brain glioma and the lateral ventricle are represented by dashed lines, a color bar encodes signal strength of […] small molecules in […] (MSI), and the resolution is 10 μm.

[3] = tested on: cranial nerve glioma cell U87; assay: Antiproliferative activity against cranial nerve glioma cell U87; format: cell-based; conditions: Homo sapiens, U-87 MG; U87 cells; read-out: concentration at which half of the tumor cells are killed
Description: FIG. 14 is an antiproliferative activity test diagram of compound 8, compound 11, compound 13, and compound 21 against a cranial nerve glioma cell U87.

U87MG tumor = U87MG tumor growth and survival in mice after various treatments; format: in vivo, nude mouse
Description: In all different experimental groups (a and b in FIG. 10), the overall survival (OS) of mice treated with TMZ and compound 27 is the best. […] However, mouse death caused by glioma is reduced only 20 days […] treatment. After this period of time, the survival rates of the in-situ U87 heterogeneous tumor of the two single drug groups decreases rapidly due to malignant glioma.

## CCOc1ccc(C(=O)NCCCN(C)CCCN(C)Cc2ccccc2)cc1Br [compound 27]
U87 glioma cells; U87 cells after treatment
  glyceraldehyde-3-phosphate accumulation relative to control group processed by PBS: approximately 3.5 times
  increase in concentration of thiamine pyrophosphate (TPP): ~2.5 times
U87 glioma cells; U87 cells after treatment, P<0.005
  glyceride-3-phosphate change: significantly reduced by nearly two orders of magnitude
U87 glioma cells; U87 cells, vs control group processed by PBS
  concentration of glucose-6-phosphate: lower than that of the control group
[1]
  AUC(0-t): 64400 ng·h/mL
  Cmax: 14600 ng/mL
  Tmax: 2 h
  half-life: 4.12 h
[2]
  capacity of penetrating a blood-brain barrier: can break through the blood-brain barrier
[3]
  IC50: 11.3 µM
U87MG tumor; U87MG subcutaneous tumor, nude mouse
  growth of solid tumors: can inhibit growth of solid tumors
U87MG tumor; in situ U87-luciferase mice, compared with PBS
  glioma growth / survival rate, bioluminescence tracking: delays the growth of glioma
U87MG tumor; mice with U87MG tumor, n=6 per group
  median survival time: 30 days
